Data reported in ChEMBL document CHEMBL1143840, “In vivo efficacy of anidulafungin and caspofungin against Candida glabrata and association with in vitro potency in the presence of sera” (Antimicrob Agents Chemother, 2007).
≈ marks a conversion by molar mass, not a printed value. Where “and” joins values, the source holds several entries; their conditions need not be identical. Equal entries are not always repeated. Calls of active or inactive are those of the source. No cut-off for these calls is given here. *1 amine or outer side, *2 acyl side, *3 side chain or, on linkers, in order; H or OH if unused. Where a SMILES comes first, the peptide text is derived from it. Bridges are numbered along the chain shown (N, C = ends). [ ]: non-standard residue; d: D form. The star is where a group is joined. pTerphenylCO(4''-OnC5H11) = CCCCCOc1ccc(-c2ccc(-c3ccc(C(=O)*)cc3)cc2)cc1; Orn(4R-OH,5R-OH) = O=C([C@H](C[C@@H](O)[C@@H](O)N[*:3])N[*:1])[*:2]; hTyr(3S-OH,4S-OH) = N[C@H](C(=O)O)[C@H](O)[C@@H](O)c1ccc(O)cc1; Pro(3S-OH,4S-Me) = C[C@H]1CN[C@H](C(=O)O)[C@H]1O; Hyp = O=C(O)[C@@H]1C[C@@H](O)CN1

Key:
[1] = tested on: Nakaseomyces glabratus; assay: Antifungal activity against Candida glabrata 05-62 isolate after 22 hrs by XTT assay; assay type: functional, organism-based
[2] = tested on: Nakaseomyces glabratus; assay: Antifungal activity against Candida glabrata 05-761 isolate assessed as decrease in fungal turbidity in presence of 50% human serum by microdilution method; assay type: functional
[3] = tested on: Nakaseomyces glabratus; assay: Antifungal activity against Candida glabrata 05-761 isolate infected ICR mouse kidney assessed as reduction of tissue fungal burden at 5 mg/kg, ip; assay type: functional, organism-based; parameters: dose 5 mg/kg
[4] = tested on: Nakaseomyces glabratus; assay: Antifungal activity against Candida glabrata 05-761 isolate assessed as decrease in fungal turbidity in presence of 5% human serum by microdilution method; assay type: functional
[5] = tested on: Nakaseomyces glabratus; assay: Antifungal activity against Candida glabrata 05-761 isolate assessed as decrease in fungal turbidity in presence of 50% mouse serum by microdilution method; assay type: functional
[6] = tested on: Nakaseomyces glabratus; assay: Antifungal activity against Candida glabrata 05-62 isolate after 24 hrs by broth microdilution method; assay type: functional
[7] = tested on: Nakaseomyces glabratus; assay: Antifungal activity against Candida glabrata 05-761 isolate in presence of 50% mouse serum after 24 hrs by broth microdilution method; assay type: functional
[8] = tested on: Nakaseomyces glabratus; assay: Antifungal activity against Candida glabrata 05-761 isolate in presence of 5% human serum after 24 hrs by broth microdilution method; assay type: functional, organism-based
[9] = tested on: Nakaseomyces glabratus; assay: Antifungal activity against Candida glabrata 05-761 isolate infected ICR mouse kidney assessed as reduction of tissue fungal burden at 1 mg/kg, ip; assay type: functional, organism-based; parameters: dose 1 mg/kg
[10] = tested on: Nakaseomyces glabratus; assay: Antifungal activity against Candida glabrata 05-761 isolate after 22 hrs by XTT assay; assay type: functional, organism-based
[11] = tested on: Nakaseomyces glabratus; assay: Antifungal activity against Candida glabrata 05-62 isolate in presence of 50% mouse serum after 24 hrs by broth microdilution method; assay type: functional
[12] = tested on: Nakaseomyces glabratus; assay: Antifungal activity against Candida glabrata 05-761 isolate assessed as decrease in fungal turbidity in presence of 5% mouse serum by microdilution method; assay type: functional
[13] = tested on: Nakaseomyces glabratus; assay: Antifungal activity against Candida glabrata 05-761 isolate in presence of 50% human serum after 24 hrs by broth microdilution method; assay type: functional
[14] = tested on: Nakaseomyces glabratus; assay: Antifungal activity against Candida glabrata 05-62 isolate in presence of 5% human serum after 24 hrs by broth microdilution method; assay type: functional, organism-based
[15] = tested on: Nakaseomyces glabratus; assay: Antifungal activity against Candida glabrata 05-62 isolate in presence of 5% mouse serum after 24 hrs by broth microdilution method; assay type: functional
[16] = tested on: Nakaseomyces glabratus; assay: Antifungal activity against Candida glabrata 05-761 isolate infected ICR mouse kidney assessed as reduction of tissue fungal burden at 0.5 mg/kg, ip; assay type: functional, organism-based; parameters: dose 0.5 mg/kg
[17] = tested on: Nakaseomyces glabratus; assay: Antifungal activity against Candida glabrata 05-62 isolate assessed as decrease in fungal turbidity in presence of 50% human serum by microdilution method; assay type: functional
[18] = tested on: Nakaseomyces glabratus; assay: Antifungal activity against Candida glabrata 05-761 isolate in presence of 5% mouse serum after 24 hrs by broth microdilution method; assay type: functional
[19] = tested on: Nakaseomyces glabratus; assay: Antifungal activity against Candida glabrata 05-62 isolate in presence of 5% human serum after 22 hrs by XTT assay; assay type: functional, organism-based
[20] = tested on: Nakaseomyces glabratus; assay: Antifungal activity against Candida glabrata 05-62 isolate in presence of 50% human serum after 24 hrs by broth microdilution method; assay type: functional
[21] = tested on: Nakaseomyces glabratus; assay: Antifungal activity against Candida glabrata 05-761 isolate after 24 hrs by broth microdilution method; assay type: functional
[22] = tested on: Nakaseomyces glabratus; assay: Antifungal activity against Candida glabrata 05-761 isolate assessed as decrease in fungal turbidity by microdilution method; assay type: functional
[23] = tested on: Nakaseomyces glabratus; assay: Antifungal activity against Candida glabrata 05-62 isolate after 2 hrs in presence of 50% mouse serum by XTT reduction assay; assay type: functional
[24] = tested on: Nakaseomyces glabratus; assay: Antifungal activity against Candida glabrata 05-62 isolate after 2 hrs in presence of 5% mouse serum by XTT reduction assay; assay type: functional
[25] = tested on: Nakaseomyces glabratus; assay: Antifungal activity against Candida glabrata 05-62 isolate assessed as decrease in fungal turbidity in presence of 5% human serum by microdilution method; assay type: functional
[26] = Nakaseomyces glabratus, 24 h, read-out: MIC

In the case of CCCCCOc1ccc(-c2ccc(-c3ccc(C(=O)N[C@H]4C[C@@H](O)[C@@H](O)NC(=O)[C@@H]5[C@@H](O)[C@@H](C)CN5C(=O)[C@H]([C@@H](C)O)NC(=O)[C@H]([C@H](O)[C@@H](O)c5ccc(O)cc5)NC(=O)[C@@H]5C[C@@H](O)CN5C(=O)[C@H]([C@@H](C)O)NC4=O)cc3)cc2)cc1 [ANIDULAFUNGIN] ({pTerphenylCO(4''-OnC5H11)}-[Orn(4R-OH,5R-OH)]T[Hyp][hTyr(3S-OH,4S-OH)]T[Pro(3S-OH,4S-Me)]; lactam 1-C), the IC50 [1] is reported as 0.31 µg/mL (≈ 0.272 µM), the IC90 [1] is reported as 0.41 µg/mL (≈ 0.36 µM) and the MIC [2] is reported as 1 µg/mL. The Activity [3] was “inactive”, the MIC [4] was 0.5 µg/mL and the MIC [5] was 1 µg/mL. The MIC [6] was 0.25 µg/mL (≈ 0.219 µM), the MIC [6, 26] was 0.5 µg/mL (≈ 0.438 µM) and the MIC [7] was 1 µg/mL. For the same molecule, the IC50 [8] was 0.31 µg/mL, the IC90 [8] was 0.39 µg/mL and the MIC [8] was 0.5 µg/mL. The Activity [9] was “Active”, the IC50 [10] was 0.05 µg/mL (≈ 0.0438 µM) and the IC90 [10] was 0.16 µg/mL (≈ 0.14 µM). For the same molecule, the MIC [11] was 8 µg/mL, the MIC [12] was 0.5 µg/mL and the MIC [13] was 2 µg/mL. It also gave an IC50 [14] of 1.7 µg/mL, an IC90 [14] of 3.1 µg/mL and an MIC [14] of 2 µg/mL. The MIC [15] was 4 µg/mL, the Activity [16] was “Active” and the MIC [17] was 8 µg/mL. The MIC [18] was 0.5 µg/mL, the IC50 [19] was 1.7 µg/mL and the IC90 [19] was 3.1 µg/mL. For the same molecule, the MIC [20] was 16 µg/mL, the MIC [21] was 0.125 µg/mL and 0.06 µg/mL and the MIC [22] was 0.06 µg/mL (≈ 0.0526 µM). For the same molecule, the MIC [23] was 8 µg/mL, the MIC [24] was 4 µg/mL and the MIC [25] was 2 µg/mL.

CC[C@H](C)C[C@H](C)CCCCCCCCC(=O)N[C@H]1C[C@@H](O)[C@@H](NCCN)NC(=O)[C@@H]2[C@@H](O)CCN2C(=O)[C@H]([C@H](O)CCN)NC(=O)[C@H]([C@H](O)[C@@H](O)c2ccc(O)cc2)NC(=O)[C@@H]2C[C@@H](O)CN2C(=O)[C@H]([C@@H](C)O)NC1=O [CASPOFUNGIN] showed an IC50 [1] of 1.2 µg/mL (≈ 1.1 µM), an IC90 [1] greater than 32 µg/mL and an MIC [2] of 1 µg/mL. For the same molecule, the Activity [3] was “inactive”, the MIC [4] was 0.25 µg/mL and the MIC [5] was 2 µg/mL. It also gave an MIC [6, 26] greater than 32 µg/mL, an MIC [7] of 2 µg/mL and an IC50 [8] of 0.29 µg/mL. The IC90 [8] was 0.33 µg/mL, the MIC [8] was 0.5 µg/mL and the Activity [9] was “Active”. It also gave an IC50 [10] of 1.1 µg/mL (≈ 1.01 µM), an IC90 [10] of 1.6 µg/mL (≈ 1.46 µM) and an MIC [11] greater than 32 µg/mL. The MIC [12] was 1 µg/mL, the MIC [13] was 1 µg/mL and the IC50 [14] was 1.4 µg/mL. It also gave an IC90 [14] greater than 32 µg/mL, an MIC [14] greater than 32 µg/mL and an MIC [15] greater than 32 µg/mL. For the same molecule, the Activity [16] was “Active”, the MIC [17] was 4 µg/mL and the MIC [18] was 1 µg/mL. The IC50 [19] was 1.4 µg/mL, the IC90 [19] was greater than 32 µg/mL and the MIC [20] was greater than 32 µg/mL. For the same molecule, the MIC [21, 26] was 2 µg/mL (≈ 1.83 µM), the MIC [22] was 1 µg/mL (≈ 0.915 µM) and the MIC [23] was 8 µg/mL. It also gave an MIC [24] of 4 µg/mL and an MIC [25] of 2 µg/mL.
